# Test results published in PubChem BioAssay (NCI).
#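 Growth conditions: 96-well plates. Treatment: test compound, 48 hours, 5 concentrations. Analysis: linear interpolation between bracketing concentrations; unreached endpoints set to highest concentration. Abbreviation: GI50, concentration required for 50% inhibition of growth. TGI is the concentration that stops growth completely.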
# Columns and labels:
# Assay in all cases: NCI tumour cell line growth inhibition, 48 h
# [1] = test system: A549 NSCLC
# [2] = test system: EKVX NSCLC
# [3] = test system: HCC-2998 colon
# [4] = test system: HOP-62 NSCLC
# [5] = test system: MDA-MB-435
# [6] = test system: NCI-H23 lung
# [7] = test system: OVCAR-5 ovarian
# [8] = test system: OVCAR-8 ovarian
# [9] = test system: SN12C renal
# [10] = test system: UACC-62 melanoma
Compound,GI50 [1],TGI [1],GI50 [2],TGI [2],GI50 [3],TGI [3],GI50 [4],TGI [4],GI50 [5],TGI [5],GI50 [6],TGI [6],GI50 [7],TGI [7],GI50 [8],TGI [8],GI50 [9],TGI [9],GI50 [10],TGI [10]
CCCN(CCC)c1ccc(C=O)cc1,> 100 µM,> 100 µM,30.2 µM,> 100 µM,> 67.5 µM,> 100 µM,> 88 µM,> 100 µM,39.7 µM,> 100 µM,36.9 µM,> 100 µM,> 100 µM,> 100 µM,61.9 µM,> 100 µM,> 96.2 µM,> 100 µM,42.8 µM,> 100 µM
O=C(/C=C/C=C/c1ccccc1)c1ccc(Nc2nc(Nc3ccccc3)nc(Nc3ccccc3)n2)cc1,89.1 µM,> 100 µM,88.2 µM,> 100 µM,> 100 µM,> 100 µM,> 100 µM,> 100 µM,> 100 µM,> 100 µM,> 100 µM,> 100 µM,> 100 µM,> 100 µM,31.4 µM,> 100 µM,> 100 µM,> 100 µM,> 100 µM,> 100 µM
O=C(O)CN(CC(=O)O)Cc1cc2c(cc1O)Oc1cc(O)c(CN(CC(=O)O)CC(=O)O)cc1C21OC(=O)c2ccccc21,–,> 100 µM,–,> 100 µM,–,> 100 µM,–,> 100 µM,–,> 100 µM,–,> 100 µM,–,> 100 µM,–,> 100 µM,–,> 100 µM,–,> 100 µM
O=C1Nc2ccccc2C1(c1ccc(O)c(F)c1)c1ccc(O)c(F)c1,19.1 µM,81.8 µM,4.31 µM,43.5 µM,4.72 µM,25.3 µM,16.9 µM,44.5 µM,3.06 µM,11.2 µM,0.532 µM,25.2 µM,16.4 µM,44.1 µM,0.333 µM,3.49 µM,0.353 µM,12.2 µM,10.2 µM,33.7 µM
